Assays:
[1] = system: young mice; conditions: mouse, in vivo
[2] = system: postsynaptic acetylcholine (ACh) receptors; format: cell-based, Aplysia californica
[3] = system: presynaptic Ca2+ current; format: cell-based, Aplysia californica
[4] = system: cholinergic synapse of the buccal ganglion; format: cell-based, Aplysia californica

For “Gla Cys Cys Gla Asp Gly BrW Cys Cys Thr Ala Ala OHP [P11.1]”, the “dampening of the action potential” value [1] was “about 50%”, the “distribution of mean amplitudes of miniature postsynaptic currents with respect to mean amplitude of the LDIPSC” value [2] was “identical to control values” and the “effect on postsynaptic acetylcholine (ACh) receptors” value [2] was “no effect”. For the same substance, the “presynaptic Ca2+ current, % of the control value” [3] was 70%, the “amplitude of the postsynaptic response (IPSC) evoked by a presynaptic action potential, % of the initial value” [4] was 40% and the “reduction in the number of released quanta” value [4] was 60%.
